Measured values as given in EP1077677B1, “PROCESS FOR THE MANUFACTURE OF A BIOLOGICALLY ACTIVE COMPOSITION” (JAGOTEC AG, priority 1998, dated 1999).
Values after ≈ are worked out from the molar mass of the structure shown.

Experiment: physchem
Format: physicochemical
Settings: water
Experimental: In order to determine its water solubility, an excess of metronidazole was added to water, after which the mixture was stirred for 3 days at room temperature.

Structure (SMILES): Cc1ncc([N+](=O)[O-])n1CCO [metronidazole]
- solubility thermodynamic at 72 h: 8200 µg/mL (≈ 47.9 mM)
